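Cells were grown in 96-well plates and exposed to each compound for 48 hours at five concentrations; endpoints were interpolated linearly between bracketing concentrations, or set to the highest concentration if not reached. Here, GI50 denotes the concentration required for 50% inhibition of growth. TGI: total growth inhibition.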
Legend:
Assay in all cases: inhibition of tumour cell growth, NCI panel, 48 h
NCI-H522 lung = system: NCI-H522 lung
HT29 colon = system: HT29 colon
MALME-3M melanoma = system: MALME-3M melanoma
HOP-62 NSCLC = system: HOP-62 NSCLC
SF-539 CNS = system: SF-539 CNS
HCT-15 colon = system: HCT-15 colon
OVCAR-5 ovarian = system: OVCAR-5 ovarian
SN12C renal = system: SN12C renal
RPMI-8226 leukemia = system: RPMI-8226 leukemia
A549 NSCLC = system: A549 NSCLC
KM12 colon = system: KM12 colon
SF-295 CNS = system: SF-295 CNS
SK-MEL-2 melanoma = system: SK-MEL-2 melanoma
HOP-92 NSCLC = system: HOP-92 NSCLC
RXF 393 renal = system: RXF 393 renal
OVCAR-3 ovarian = system: OVCAR-3 ovarian
UACC-257 melanoma = system: UACC-257 melanoma
DU-145 prostate = system: DU-145 prostate
T-47D breast = system: T-47D breast
SK-MEL-28 melanoma = system: SK-MEL-28 melanoma
OVCAR-8 ovarian = system: OVCAR-8 ovarian
HS 578T breast = system: HS 578T breast
NCI-H226 lung = system: NCI-H226 lung
MDA-MB-231 breast = system: MDA-MB-231 breast
SF-268 CNS = system: SF-268 CNS
M14 melanoma = system: M14 melanoma
SK-OV-3 ovarian = system: SK-OV-3 ovarian
EKVX NSCLC = system: EKVX NSCLC
NCI-H460 lung = system: NCI-H460 lung
CAKI-1 renal = system: CAKI-1 renal
UO-31 renal = system: UO-31 renal
MDA-MB-435 = system: MDA-MB-435
HL-60(TB) leukemia = system: HL-60(TB) leukemia
IGROV1 ovarian = system: IGROV1 ovarian
BT-549 breast = system: BT-549 breast
TK-10 renal = system: TK-10 renal
SW-620 colon = system: SW-620 colon
UACC-62 melanoma = system: UACC-62 melanoma
CCRF-CEM leukemia = system: CCRF-CEM leukemia
SK-MEL-5 melanoma = system: SK-MEL-5 melanoma
HCC-2998 colon = system: HCC-2998 colon
U251 CNS = system: U251 CNS
HCT-116 colon = system: HCT-116 colon
SNB-19 CNS = system: SNB-19 CNS
MOLT-4 leukemia = system: MOLT-4 leukemia
786-0 renal = system: 786-0 renal
COLO 205 colon = system: COLO 205 colon
A498 renal = system: A498 renal
SNB-75 CNS = system: SNB-75 CNS
LOX IMVI melanoma = system: LOX IMVI melanoma
ACHN renal = system: ACHN renal
PC-3 prostate = system: PC-3 prostate
OVCAR-4 ovarian = system: OVCAR-4 ovarian
K-562 leukemia = system: K-562 leukemia
NCI/ADR-RES ovarian = system: NCI/ADR-RES ovarian
SR leukemia = system: SR leukemia
MCF7 breast = system: MCF7 breast

SMILES: CCNC(=O)N1CCc2cc(OC)c(OCCc3ccc(OC)c(N)c3)cc2C1c1ccc(C)cc1C (stereo not drawn)
- GI50 (NCI-H522 lung): 98.4 nM
- TGI (NCI-H522 lung): 440 nM
- GI50 (HT29 colon): 261 nM
- TGI (HT29 colon): 1770 nM
- GI50 (MALME-3M melanoma): 624 nM
- TGI (MALME-3M melanoma): 76100 nM
- GI50 (HOP-62 NSCLC): 226 nM
- TGI (HOP-62 NSCLC): > 46400 nM
- GI50 (SF-539 CNS): 77.1 nM
- TGI (SF-539 CNS): 1740 nM
- GI50 (HCT-15 colon): < 26.3 nM
- TGI (HCT-15 colon): > 100000 nM
- GI50 (OVCAR-5 ovarian): 538 nM
- TGI (OVCAR-5 ovarian): > 100000 nM
- GI50 (SN12C renal): 294 nM
- TGI (SN12C renal): 22200 nM
- GI50 (RPMI-8226 leukemia): 89.9 nM
- TGI (RPMI-8226 leukemia): 1600 nM
- GI50 (A549 NSCLC): 151 nM
- TGI (A549 NSCLC): > 100000 nM
- GI50 (KM12 colon): 493 nM
- TGI (KM12 colon): 65900 nM
- GI50 (SF-295 CNS): 164 nM
- TGI (SF-295 CNS): 11100 nM
- GI50 (SK-MEL-2 melanoma): 996 nM
- TGI (SK-MEL-2 melanoma): 14400 nM
- GI50 (HOP-92 NSCLC): 4810 nM
- TGI (HOP-92 NSCLC): 56700 nM
- GI50 (RXF 393 renal): 234 nM
- TGI (RXF 393 renal): 5010 nM
- GI50 (OVCAR-3 ovarian): 150 nM
- TGI (OVCAR-3 ovarian): 22200 nM
- GI50 (UACC-257 melanoma): 533 nM
- TGI (UACC-257 melanoma): > 82000 nM
- GI50 (DU-145 prostate): 208 nM
- TGI (DU-145 prostate): > 40800 nM
- GI50 (T-47D breast): 280 nM
- TGI (T-47D breast): 92800 nM
- GI50 (SK-MEL-28 melanoma): 283 nM
- TGI (SK-MEL-28 melanoma): 23300 nM
- GI50 (OVCAR-8 ovarian): 105 nM
- TGI (OVCAR-8 ovarian): 34300 nM
- GI50 (HS 578T breast): 273 nM
- TGI (HS 578T breast): 23800 nM
- GI50 (NCI-H226 lung): 643 nM
- TGI (NCI-H226 lung): 14600 nM
- GI50 (MDA-MB-231 breast): 134 nM
- TGI (MDA-MB-231 breast): > 56300 nM
- GI50 (SF-268 CNS): 278 nM
- TGI (SF-268 CNS): > 95300 nM
- GI50 (M14 melanoma): 205 nM
- TGI (M14 melanoma): 15200 nM
- GI50 (SK-OV-3 ovarian): 533 nM
- TGI (SK-OV-3 ovarian): > 90000 nM
- GI50 (EKVX NSCLC): 1510 nM
- TGI (EKVX NSCLC): > 100000 nM
- GI50 (NCI-H460 lung): 30.9 nM
- TGI (NCI-H460 lung): 1890 nM
- GI50 (CAKI-1 renal): 161 nM
- TGI (CAKI-1 renal): 31400 nM
- GI50 (UO-31 renal): 238 nM
- TGI (UO-31 renal): > 95000 nM
- GI50 (MDA-MB-435): 139 nM
- TGI (MDA-MB-435): 496 nM
- GI50 (HL-60(TB) leukemia): 100 nM
- TGI (HL-60(TB) leukemia): 1820 nM
- GI50 (IGROV1 ovarian): 132 nM
- TGI (IGROV1 ovarian): > 100000 nM
- GI50 (BT-549 breast): 349 nM
- TGI (BT-549 breast): 3460 nM
- GI50 (TK-10 renal): 2140 nM
- TGI (TK-10 renal): > 100000 nM
- GI50 (SW-620 colon): 106 nM
- TGI (SW-620 colon): > 100000 nM
- GI50 (UACC-62 melanoma): 105 nM
- TGI (UACC-62 melanoma): 2750 nM
- GI50 (CCRF-CEM leukemia): 58.6 nM
- TGI (CCRF-CEM leukemia): > 76600 nM
- GI50 (SK-MEL-5 melanoma): 106 nM
- TGI (SK-MEL-5 melanoma): 1700 nM
- GI50 (HCC-2998 colon): 344 nM
- TGI (HCC-2998 colon): 23300 nM
- GI50 (U251 CNS): 74.3 nM
- TGI (U251 CNS): 24600 nM
- GI50 (HCT-116 colon): 31.1 nM
- TGI (HCT-116 colon): 25800 nM
- GI50 (SNB-19 CNS): 191 nM
- TGI (SNB-19 CNS): > 100000 nM
- GI50 (MOLT-4 leukemia): 38.4 nM
- TGI (MOLT-4 leukemia): > 100000 nM
- GI50 (786-0 renal): 165 nM
- TGI (786-0 renal): 92000 nM
- GI50 (COLO 205 colon): 318 nM
- TGI (COLO 205 colon): 2820 nM
- GI50 (A498 renal): 2780 nM
- GI50 (SNB-75 CNS): 184 nM
- TGI (SNB-75 CNS): 4270 nM
- GI50 (LOX IMVI melanoma): 36.5 nM
- TGI (LOX IMVI melanoma): 1740 nM
- GI50 (ACHN renal): 121 nM
- TGI (ACHN renal): > 60400 nM
- GI50 (PC-3 prostate): 54.8 nM
- TGI (PC-3 prostate): > 100000 nM
- GI50 (OVCAR-4 ovarian): 1470 nM
- TGI (OVCAR-4 ovarian): > 100000 nM
- GI50 (K-562 leukemia): 29.1 nM
- TGI (K-562 leukemia): > 100000 nM
- GI50 (NCI/ADR-RES ovarian): 229 nM
- TGI (NCI/ADR-RES ovarian): 2460 nM
- GI50 (SR leukemia): 27 nM
- TGI (SR leukemia): 6240 nM
- GI50 (MCF7 breast): 63.4 nM
- TGI (MCF7 breast): > 83500 nM

From PubChem BioAssay (NCI)
